These results are taken from US10730870B2, “Compounds and methods for the enhanced degradation of targeted proteins” (Arvinas, Inc., priority 2015, dated 2020).

Broadly, the IC50 is the concentration at which inhibition is half-maximal.

For this assay, the target named is VHL (Homo sapiens (Human), UniProt P40337). Description: VHL fluorescence polarization (FP) competition assay. It counts as binding.

As to `Cc1ncsc1-c1ccc(CNC(=O)[C@@H]2C[C@@H](O)CN2C(=O)[C@H](C(C)C)N2Cc3cc(C#N)ccc3C2=O)cc1` [Example 34, (2S,4R)-1-((S)-2-(5-cyano-1-oxoisoindolin-2-yl)-3-methylbutanoyl)-4-hydroxy-N-(4-(4-methylthiazol-5-yl)benzyl)pyrrolidine-2-carboxamide], the IC50 is, setting by setting: (0.25% in DMSO) 2120 nM; (1% in DMSO) 660 nM; (10% in DMSO) 1180 nM.
The like results for `Cc1ncsc1-c1ccc(CNC(=O)[C@@H]2C[C@@H](O)CN2C(=O)[C@H](C(C)C)N2Cc3c(F)cccc3C2=O)cc1` [Example 33, (2S,4R)-1-((S)-2-(4-fluoro-1-oxoisoindolin-2-yl)-3-methylbutanoyl)-4-hydroxy-N-(4-(4-methylthiazol-5-yl)benzyl)pyrrolidine-2-carboxamide] were, in that order, 1940 nM, 539 nM and 1080 nM.
`CO/N=C(/NCc1ccc(-c2scnc2C)cc1)[C@@H]1C[C@@H](O)CN1C(=O)[C@H](C(C)C)N1Cc2ccccc2C1=O` [Example 120, (2S,4R,E)-4-hydroxy-N′-methoxy-1-((S)-3-methyl-2-(1-oxoisoindolin-2-yl)butanoyl)-N-(4-(4-methylthiazol-5-yl)benzyl)pyrrolidine-2-carboximidamide] yielded an IC50 (1% in DMSO) of 15500 nM.
Still for that read-out and setting: then `CCC(C(=O)N1C[C@H](O)C[C@H]1C(=O)NCc1ccc(-c2scnc2C)cc1)c1cc(C)no1` (stereo partly drawn) [Example 143, (2S,4R)-4-hydroxy-1-(2-(3-methylisoxazol-5-yl)butanoyl)-N-(4-(4-methylthiazol-5-yl)benzyl)pyrrolidine-2-carboxamide], with 964 nM.
Take `Cc1cnccc1-c1ccc(CNC(=O)[C@@H]2C[C@@H](O)CN2C(=O)[C@H](C(C)C)N2Cc3ccccc3C2=O)cc1` [Example 80, (2S,4R)-4-hydroxy-1-((S)-3-methyl-2-(1-oxoisoindolin-2-yl)butanoyl)-N-(4-(3-methylpyridin-4-yl)benzyl)pyrrolidine-2-carboxamide]: the IC50 was found to be 22400 nM (1% in DMSO) and 38900 nM (10% in DMSO).
The matching figures for `Cc1ncsc1-c1ccc(CNC(=N)[C@@H]2C[C@@H](O)CN2C(=O)[C@H](C(C)C)N2Cc3ccccc3C2=O)cc1` [Example 126, (2S,4R)-4-hydroxy-1-((S)-3-methyl-2-(1-oxoisoindolin-2-yl)butanoyl)-N-(4-(4-methylthiazol-5-yl)benzyl)pyrrolidine-2-carboximidamide]: 79500 nM and 112000 nM.
For the compound `CCC1(C(=O)NCc2ccc(-c3scnc3C)cc2)C[C@@H](O)CN1C(=O)c1cccc(OC)c1` (stereo partly drawn) [Example 67, (4R)-2-ethyl-4-hydroxy-1-(3-methoxybenzoyl)-N-(4-(4-methylthiazol-5-yl)benzyl)pyrrolidine-2-carboxamide], the “VHL FP Assay IC50” value is, setting by setting: (1% in DMSO) “Not Active”; (10% in DMSO) “Not Active”.
On to `Cc1ncsc1-c1ccc(CNC(=O)[C@@H]2C[C@@H](O)CN2C(=O)[C@@H](NC(=O)C(C)(C)C)C(C)(C)C)cc1` [Example 14, (2S,4R)-1-((S)-3,3-dimethyl-2-pivalamidobutanoyl)-4-hydroxy-N-(4-(4-methylthiazol-5-yl)benzyl)pyrrolidine-2-carboxamide], for which the IC50 reads like this: (0.25% in DMSO) 7150 nM; (1% in DMSO) 4630 nM; (10% in DMSO) 13300 nM.
The matching figures for `Cc1ncsc1-c1ccc(CNC(=O)[C@@H]2C[C@@H](O)CN2C(=O)[C@H](C(C)C)N2Cc3ccc(C#N)cc3C2=O)cc1` [Example 17, (2S,4R)-1-((S)-2-(6-cyano-1-oxoisoindolin-2-yl)-3-methylbutanoyl)-4-hydroxy-N-(4-(4-methylthiazol-5-yl)benzyl)pyrrolidine-2-carboxamide]: 2200 nM, 317 nM and 1070 nM.
As to `CC(C)[C@@H](C(=O)N1C[C@H](O)C[C@H]1C(=O)NCc1ccc(-c2scnc2Br)cc1)N1Cc2ccccc2C1=O` [Example 1, (2S,4R)—N-(4-(4-bromothiazol-5-yl)benzyl)-4-hydroxy-1-((S)-3-methyl-2-(1-oxoisoindolin-2-yl)butanoyl)pyrrolidine-2-carboxamide], the IC50 by setting is: (1% in DMSO) 2380 nM; (10% in DMSO) 2280 nM.
The like results for `Cc1ncsc1-c1ccc(CNC(=O)[C@@H]2C[C@@H](O)CN2C(=O)[C@H](CS)NC(=O)CCC(C)C)cc1` [Example 59, (2S,4R)-4-hydroxy-1-((R)-3-mercapto-2-(4-methylpentanamido)propanoyl)-N-(4-(4-methylthiazol-5-yl)benzyl)pyrrolidine-2-carboxamide] were, in that order, 1420 nM and 3690 nM.
On to `CC(=O)N[C@H](C(=O)N1C[C@H](O)C[C@H]1C(=O)NCc1ccc(-c2scnc2C)cc1)C(C)C` [Example 69, (2S,4R)-1-((S)-2-acetamido-3-methylbutanoyl)-4-hydroxy-N-(4-(4-methylthiazol-5-yl)benzyl)pyrrolidine-2-carboxamide], for which the IC50 stood at 1430 nM (1% in DMSO) and 4280 nM (10% in DMSO).
In the case of `Cc1ncoc1-c1ccc(CNC(=O)[C@@H]2C[C@@H](O)CN2C(=O)[C@H](C(C)C)N2Cc3ccccc3C2=O)cc1` [Example 133, (2S,4R)-4-hydroxy-1-((S)-3-methyl-2-(1-oxoisoindolin-2-yl)butanoyl)-N-(4-(4-methyloxazol-5-yl)benzyl)pyrrolidine-2-carboxamide], the IC50 (1% in DMSO) came out at 1640 nM.
For the compound `COc1ccc(C)c(C(=O)N2C[C@H](O)C[C@H]2C(=O)NCc2ccc(-c3scnc3C)cc2)c1` [Example 95, (2S,4R)-4-hydroxy-1-(5-methoxy-2-methylbenzoyl)-N-(4-(4-methylthiazol-5-yl)benzyl)pyrrolidine-2-carboxamide], for the setting “1% in DMSO”, the IC50 is 23400 nM.
In the case of `CC(=O)NCC(=O)N1C[C@H](O)C[C@H]1C(=O)NCc1ccc(-c2scnc2C)cc1` [Example 86, (2S,4R)-1-(2-acetamidoacetyl)-4-hydroxy-N-(4-(4-methylthiazol-5-yl)benzyl)pyrrolidine-2-carboxamide], the concentration for half-maximal inhibition (IC50) (1% in DMSO) came to 151000 nM and the 50% inhibitory concentration (IC50) (10% in DMSO) came to 225000 nM.
Regarding `CC(C)[C@@H](C(=O)N1C[C@H](O)C[C@H]1C(=O)NCc1ccc(-c2ncon2)cc1)N1Cc2ccccc2C1=O` [Example 101, (2S,4R)—N-(4-(1,2,4-oxadiazol-3-yl)benzyl)-4-hydroxy-1-((S)-3-methyl-2-(1-oxoisoindolin-2-yl)butanoyl)pyrrolidine-2-carboxamide], the IC50 (1% in DMSO) came to 4390 nM.
For `Cc1ncsc1-c1ccc(CNC(=O)[C@@H]2C[C@@H](O)CN2C(=O)[C@@H](NC(=O)CCC(C)C)c2cccs2)cc1` [Example 52, (2S,4R)-4-hydroxy-1-((R)-2-(4-methylpentanamido)-2-(thiophen-2-yl)acetyl)-N-(4-(4-methylthiazol-5-yl)benzyl)pyrrolidine-2-carboxamide], the IC50 reads like this: (1% in DMSO) 2480 nM; (10% in DMSO) 3730 nM.
As for `Cc1ncsc1-c1ccc(CNC(=O)[C@@H]2C[C@@H](O)CN2C(=O)[C@H](C(C)C)N2Cc3cc(Cl)ccc3C2=O)cc1` [Example 73, (2S,4R)-1-((S)-2-(5-chloro-1-oxoisoindolin-2-yl)-3-methylbutanoyl)-4-hydroxy-N-(4-(4-methylthiazol-5-yl)benzyl)pyrrolidine-2-carboxamide], the IC50 by setting is: (1% in DMSO) 1330 nM; (10% in DMSO) 1190 nM.
The like results for `Cc1ncsc1-c1ccc(CNC(=O)[C@H]2C[C@H](O)CN2C(=O)[C@@H](CSSC[C@H](NC(=O)CCC(C)C)C(=O)N2C[C@H](O)C[C@H]2C(=O)NCc2ccc(-c3scnc3C)cc2)NC(=O)CCC(C)C)cc1` [Example 60, (2S,4R)-4-hydroxy-1-((R)-3-(((S)-3-((2R,4S)-4-hydroxy-2-(4-(4-methylthiazol-5-yl)benzylcarbamoyl)pyrrolidin-1-yl)-2-(4-methylpentanamido)-3-oxopropyl)disulfanyl)-2-(4-methylpentanamido)propanoyl)-N-(4-(4-methylthiazol-5-yl)benzyl)pyrrolidine-2-carboxamide] were, in that order, 1450 nM and 293 nM.
Compound `Cc1ncsc1-c1ccc(CN/C(=N/C#N)[C@@H]2C[C@@H](O)CN2C(=O)[C@H](C(C)C)N2Cc3ccccc3C2=O)cc1` [Example 112, (2S,4R,E)-N′-cyano-4-hydroxy-1-((S)-3-methyl-2-(1-oxoisoindolin-2-yl)butanoyl)-N-(4-(4-methylthiazol-5-yl)benzyl)pyrrolidine-2-carboximidamide] yielded an IC50 (1% in DMSO) greater than 100000 nM.
On the same count and under the same terms, then `Cc1ncsc1-c1ccc(CNC(=O)[C@@H]2C[C@@H](O)CN2c2cccc(Oc3ccccc3)c2)cc1` [Example 109, (2S,4R)-4-hydroxy-N-(4-(4-methylthiazol-5-yl)benzyl)-1-(3-phenoxyphenyl)pyrrolidine-2-carboxamide], with 6670 nM.
For the compound `C=Cc1ncsc1-c1ccc(CNC(=O)[C@@H]2C[C@@H](O)CN2C(=O)[C@H](C(C)C)N2Cc3ccccc3C2=O)cc1` [Example 4, (2S,4R)-4-hydroxy-1-((S)-3-methyl-2-(1-oxoisoindolin-2-yl)butanoyl)-N-(4-(4-vinylthiazol-5-yl)benzyl)pyrrolidine-2-carboxamide], the IC50 amounted to 3340 nM (0.25% in DMSO), 1220 nM (1% in DMSO) and 1940 nM (10% in DMSO).
`COc1cccc(C(=O)N2C[C@H](O)C[C@H]2C(=O)NCc2ccc(-c3scnc3C)cc2)c1` [Example 63, (2S,4R)-4-hydroxy-1-(3-methoxybenzoyl)-N-(4-(4-methylthiazol-5-yl)benzyl)pyrrolidine-2-carboxamide]: the IC50 came out at 58400 nM (1% in DMSO) and 53000 nM (10% in DMSO).
Under “1% in DMSO”, `CC(C)[C@@H](C(=O)N1C[C@H](O)C[C@H]1C(=O)NCc1ccc(-c2scnc2C(F)(F)F)cc1)N1Cc2ccccc2C1=O` [Example 102, (2S,4R)-4-hydroxy-1-((S)-3-methyl-2-(1-oxoisoindolin-2-yl)butanoyl)-N-(4-(4-(trifluoromethyl)thiazol-5-yl)benzyl)pyrrolidine-2-carboxamide] registered an IC50 of 7750 nM.
As for `Cc1ncsc1-c1ccc(CNC(=O)[C@@H]2C[C@@H](O)CN2C(=O)[C@@H](NC(=O)CCC(C)C)C2CCCCC2)cc1` [Example 56, (2S,4R)-1-((S)-2-cyclohexyl-2-(4-methylpentanamido)acetyl)-4-hydroxy-N-(4-(4-methylthiazol-5-yl)benzyl)pyrrolidine-2-carboxamide], the IC50 (1% in DMSO) came out at 878 nM and the half-inhibitory concentration (IC50) (10% in DMSO) was 1480 nM.
